Laboratory results published in ChEMBL document CHEMBL1201862, “PubChem BioAssay data set” (2004).
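Cultured in 96-well plates, cells were exposed to test compound for 48 hours across five concentrations. Abbreviation: GI50, concentration required for 50% inhibition of growth.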 Active and inactive are the calls of the source. Cut-off read from the data, not from the text of the source: active = GI50 up to about 1.1 µM and inactive = higher.

How the values were obtained:
Experiment in all cases: NCI tumour cell line growth inhibition, 48 h
[1] = tested on: NCI-H226
[2] = tested on: A498
[3] = tested on: SNB-19
[4] = tested on: UACC-62
[5] = tested on: MOLT-4
[6] = tested on: HL-60
[7] = tested on: IGROV-1
[8] = tested on: NCI-H460
[9] = tested on: NCI/ADR-RES
[10] = tested on: NCI-H522
[11] = tested on: NCI-H23
[12] = tested on: HCC 2998
[13] = tested on: LOX IMVI
[14] = tested on: U-251
[15] = tested on: HT-29
[16] = tested on: OVCAR-4
[17] = tested on: 786-0
[18] = tested on: SN12C
[19] = tested on: RXF 393

Measured: GI50

CC(C)(C)c1ccc(C(O)(c2ccc(C(C)(C)C)cc2)c2ccc(C(C)(C)C)cc2)cc1
inactive: [1] > 100 µM | [2] > 100 µM | [3] > 100 µM | [4] > 100 µM | [5] > 100 µM | [6] > 100 µM | [7] > 100 µM | [8] > 100 µM | [9] > 100 µM | [10] > 100 µM | [11] > 100 µM | [12] > 100 µM | [13] > 100 µM | [14] > 100 µM | [15] > 100 µM | [16] > 100 µM | [17] > 100 µM | [18] > 100 µM

COc1ccccc1N1C(=O)CS(=O)(=O)C1c1cccc(Oc2ccccc2)c1 (stereo unspecified)
inactive: [1] 14.6 µM | [2] 18.9 µM | [3] 18 µM | [4] 12.1 µM | [5] 13.9 µM | [6] 12.7 µM | [8] 15.2 µM | [9] 16.9 µM | [10] 12.6 µM | [11] 16.7 µM | [13] 17.8 µM | [14] 16.1 µM | [15] 21.4 µM | [16] 15 µM | [17] 18.3 µM | [18] 17.1 µM | [19] 16.9 µM

O=C1CC(=O)NC(NN2C(=O)CSC2c2ccc(Cl)cc2)=N1 (stereo unspecified)
inactive: [1] > 100 µM | [2] > 100 µM | [4] 21.8 µM | [5] 28 µM | [7] > 100 µM | [8] 51.3 µM | [9] > 100 µM | [10] > 100 µM | [11] 25.5 µM | [12] > 100 µM | [14] 36.4 µM | [15] 34.1 µM | [16] > 100 µM | [17] 37.2 µM | [18] 18.4 µM | [19] > 100 µM

Oc1cn(-c2ccc(Cl)cc2)nc1-c1nnc(Nc2ccccc2)o1
inactive: [1] 8.39 µM | [2] 12.6 µM | [3] 20.9 µM | [4] 16.6 µM | [7] 15.2 µM | [8] 19.9 µM | [9] 14.9 µM | [10] 17.3 µM | [11] 14.1 µM | [14] 17.5 µM | [15] 9.55 µM | [16] 34.8 µM | [17] 16.6 µM | [18] 16.1 µM | [19] 16 µM

O=C1CSC(c2ccccc2[N+](=O)[O-])N1c1ccc(-n2c(-c3ccccc3)nc3ccccc3c2=O)cc1 (stereo unspecified)
inactive: [1] 28.4 µM | [2] 38.4 µM | [3] 32.7 µM | [4] 33.4 µM | [5] 16.6 µM | [6] > 100 µM | [7] 46.1 µM | [8] 31.5 µM | [9] > 100 µM | [10] 22.4 µM | [11] > 100 µM | [12] 46.5 µM | [13] 28.6 µM | [14] 17.7 µM | [15] 54.3 µM | [16] 23.4 µM | [17] 31.4 µM | [18] > 100 µM

Cn1c2ccccc2n2c(=O)c3cccnc3c(C#N)c12
inactive: [1] 4.42 µM | [2] > 100 µM | [5] 7.45 µM | [8] 18.7 µM | [9] 70.3 µM | [10] 14.7 µM | [11] 33.3 µM | [13] 39.1 µM | [14] > 100 µM | [15] 63 µM | [16] > 100 µM | [17] > 100 µM | [18] 25.5 µM | [19] > 100 µM

Cc1sc2nc3n(c(=O)c2c1C)N=CN(c1ccc(Cl)cc1)C3
inactive: [1] > 100 µM | [2] > 100 µM | [3] > 100 µM | [4] > 100 µM | [5] > 100 µM | [7] > 100 µM | [8] > 100 µM | [9] > 100 µM | [10] 58.7 µM | [11] > 100 µM | [12] > 100 µM | [13] > 100 µM | [14] > 100 µM | [15] > 100 µM | [16] > 100 µM | [17] > 100 µM | [18] > 100 µM | [19] > 100 µM

CN(C)C(=C1c2cc([N+](=O)[O-])ccc2-c2ccc([N+](=O)[O-])cc21)N(C)C
inactive: [1] > 100 µM | [2] > 100 µM | [3] > 100 µM | [4] > 100 µM | [5] 5.24 µM | [7] > 100 µM | [9] > 100 µM | [10] > 100 µM | [11] > 100 µM | [12] > 100 µM | [14] > 100 µM | [15] > 100 µM | [16] > 100 µM | [17] > 100 µM | [18] > 100 µM | [19] > 100 µM

C/C=C1\CNC1C(=O)O (stereo unspecified)
inactive: [2] > 100 µM | [3] > 100 µM | [4] > 100 µM | [6] > 100 µM | [7] > 100 µM | [8] > 100 µM | [9] > 100 µM | [11] > 100 µM | [12] > 100 µM | [13] > 100 µM | [15] > 100 µM | [16] > 100 µM | [17] > 100 µM | [18] > 100 µM

Cc1ncc([N+](=O)[O-])n1CCNC(=O)CCC(=O)NCCCn1ccnc1[N+](=O)[O-]
inactive: [1] > 100 µM | [2] > 100 µM | [4] > 100 µM | [5] > 100 µM | [6] > 100 µM | [7] > 100 µM | [8] > 100 µM | [9] > 100 µM | [10] > 100 µM | [11] > 100 µM | [13] > 100 µM | [14] > 100 µM | [15] > 100 µM | [16] > 100 µM | [17] > 100 µM | [18] > 100 µM | [19] > 100 µM

COc1cc(OC)c2nccc(NCCCN(C)C)c2c1[N+](=O)[O-]
inactive: [2] > 100 µM | [3] > 100 µM | [4] > 100 µM | [5] > 100 µM | [6] 39.3 µM | [7] 49.5 µM | [8] 65.3 µM | [9] > 100 µM | [10] > 100 µM | [11] > 100 µM | [12] > 100 µM | [13] > 100 µM | [14] > 100 µM | [15] 35 µM | [16] > 100 µM | [17] > 100 µM | [18] > 100 µM

O=C(Cc1ccccc1)NN1C(=O)/C(=C\c2ccc([N+](=O)[O-])cc2)S/C1=N\c1ccccc1
inactive: [1] > 100 µM | [2] > 100 µM | [3] > 100 µM | [4] 61.1 µM | [5] 55 µM | [7] > 100 µM | [8] > 100 µM | [9] > 100 µM | [11] 68.5 µM | [12] > 100 µM | [14] > 100 µM | [15] > 100 µM | [16] > 100 µM | [17] > 100 µM | [18] > 100 µM | [19] > 100 µM
